Experiments:
SAP and SAP-A14C = experiment: Inhibition of SAP hydrolysis of yeast tRNA and rabbit rRNA; format: biochemical, Saponaria officinalus; settings: rabbit 80S ribosome 100 nM or yeast tRNA 1.0 mg/mL; 10 min preincubation
Saporin L3 (SAP) = format: biochemical, Saponaria officinalus
SAP (saporin L3) [1] = biological target: T1, SAP (saporin L3) (Saponaria officinalis, UniProt Q2QEH4); experiment: Ki* quoted in Table 1 from ref 19; format: biochemical; settings: read-out: Inhibition constant Ki* (nM), value taken from Schramm et al. [19]; cited from earlier work
SAP (saporin L3) [2] = biological target: T1, SAP (saporin L3); experiment: Competitive inhibition of saporin L3 with stem-loop RNA A10; format: biochemical

T1 sequence (Q2QEH4 22-280 limits assumed): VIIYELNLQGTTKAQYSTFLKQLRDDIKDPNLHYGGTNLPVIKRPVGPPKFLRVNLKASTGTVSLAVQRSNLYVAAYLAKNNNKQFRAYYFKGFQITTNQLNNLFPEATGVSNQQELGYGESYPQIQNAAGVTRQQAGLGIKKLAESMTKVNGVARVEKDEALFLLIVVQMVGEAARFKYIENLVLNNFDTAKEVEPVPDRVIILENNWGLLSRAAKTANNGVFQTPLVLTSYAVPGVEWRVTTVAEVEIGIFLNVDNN

PDpDIApGpPD [Compound 2]
inhibition of hydrolysis of yeast tRNA and rabbit rRNA by SAP and SAP-A14C (SAP and SAP-A14C): inhibits

GpGpDIApPD [Compound 41]
inhibition of SAP (in words) (Saporin L3 (SAP)): weak inhibitors

PDpApGpPD [reference compound]
Ki (Saporin L3 (SAP); RNA A10 substrate, slow-onset dissociation constant): 16.1 µM

serinol analogue of PDpDIApGpPD (Ser = serinol; PD = propanediol) [PDpSerpGpPD]
Ki (SAP (saporin L3) [1]): 43.2 ± 1.1 nM

catalytically inactive substrate analogue PDpApGpPD (adenosine in place of DIA; PD = propanediol)
Ki (SAP (saporin L3) [2]; read-out: Inhibition constant Ki*): 16 µM

PDpGpDIApPD [Compound 39]
inhibition of SAP (in words) (Saporin L3 (SAP)): weak inhibitors

PDpHomoSerpGpPD [Compound 52]
inhibition of SAP (in words) (Saporin L3 (SAP)): good inhibitors

CO[C@@H]1[C@H](O)[C@@H](COP(=O)(O)O[C@H]2CN(Cc3c[nH]c4c(N)ncnc34)C[C@@H]2COP(=O)(O)O[C@H]2[C@@H](OC)[C@H](n3cnc4c(=O)[nH]c(N)nc43)O[C@@H]2CO)O[C@H]1n1cnc2c(=O)[nH]c(N)nc21 [compound 32, GpDIApG (2'-O-methyl guanosines)]
Ki (SAP (saporin L3) [2]): 0.033 ± 0.0017 µM
